This is an account of results in patent publication US20100204258A1, “METHODS AND COMPOSITIONS FOR MODULATING INSULIN SECRETION AND GLUCOSE METABOLISM” (The Trustees of Columbia University in the City of New York, priority 2007, published 2010).

Each structure is given as a SMILES string. Entries after “also recorded” stand apart in the source; their conditions may differ.

In one experiment the test system is human islets. As to the kind of experiment: Glucose-stimulated insulin secretion of purified human cadaveric islets ex vivo. It is filed as cell-based. The note with it: absence of high glucose stimulation; data not shown. Here is the method:
Human islet tissue and glucose-stimulated insulin secretion. The islet tissue used in these studies was obtained with institutional review board approval. Pancreas digestion and islet isolation were performed using minor modifications of the Edmonton purification protocol. (Shapiro, […] al. “Islet […] in seven patients with type I diabetes mellitus using a glucocortoid-free immunosuppressive regimen.” New England Journal of Medicine 343(4):230-8, (2000)) The determination of islet cell mass, viability, and purity were also performed. Purified islets were cultured in CMRL 1066 culture media with 10% fetal bovine serum at 37° C. in humidified air (5% CO2) for 18 to 24 hours. The human islet insulin secretory response was performed according to a procedure described by the Edmonton group. (Id.) Briefly, after an overnight culture, islets were incubated with either low or high concentrations of glucose for 2 hours at 37° C. and 5% CO2. The supernatant was collected for insulin measurement. Insulin concentrations in these experiments were analyzed with a human insulin enzyme-linked immunosorbent assay (ELISA) kit (ALPCO Insulin ELISA kit, Windham, N.H.). In some experiments TBZ, DTBZ or epinephrine was added to the cultures before glucose stimulation.

Experiment [1] has as its system Lewis rats. As to the kind of experiment: IPGTT after 2 mg/kg i.v. of VMAT2 ligands (FIG. 10). It counts as in vivo, rat. The note with it: 2 mg/kg body weight i.v.; for blood glucose excursion during IPGTT: vs vehicle (DMSO). Here is the method:
Experimental animals. All animal studies were conducted as described in Example 1.
Anaesthetized rats were administered TBZ, THB, butamol, reserpine, emetine, or Compound 6 at a dose of approximately 2-3 mg/kg body weight by intravenous (i.v.) injection using the penile vein. TBZ, THB, butamol, reserpine, emetine, and Compound 6 were each separately dissolved in neat sterile dimethylsulfoxide (DMSO) and diluted (always more than 10 fold) in sterile saline. Rats received injections of vehicle alone (10% DMSO in saline) or reserpine (in saline). Animals recovered fully before receiving IPGTT.
(§1) Blood glucose, insulin, glucagon and intraperitoneal glucose tolerance tests measurements. Blood samples were collected from a superficial blood vessel in the tails of the rats following 6 hours of fasting between 12:00 noon and 2:00 p.m. The fasting blood glucose (BG) levels of the rats were measured using an Accu-Check blood glucose monitoring system (Roche Diagnostics, Sommerville, N.J.). Intraperitoneal glucose tolerance tests (IPGTT) were performed in 6 hour fasting un-anaesthetized animals. Briefly, after baseline BG measurements, animals received an intraperitoneal (i.p.) injection of 1 gram glucose/kilogram body weight. To minimize stress during the procedure, rats were handled by the same operator during acclimatization and later during weighing and IPGTT. Blood samples (approximately 30 μl) were collected at baseline and then again 15, 30, 45, 60, 90, and 120 minutes following i.p. glucose. BG concentrations were measured immediately on these samples and the remainder processed.

Experiment [2] deals with dopamine content of brain and pancreas tissue. As to the kind of experiment: Dopamine content of brain and pancreas extracts by ELISA after i.v. TBZ. It counts as in vivo, rat. Here is the method: Dopamine measurements. Anaesthetized rats received an intravenous injection of TBZ and were sacrificed one hour later. Euthanasia was performed by exsanguination of the anesthetized animal. Brain and pancreas were harvested as quickly as possible and frozen at −80° C. until use. Frozen tissue was pulverized in a liquid nitrogen cooled mortar and extracted in 0.01 N HCl. The tissue extract was centrifuged at 10,000×g at 4° C. to remove debris and the total protein was estimated by reading the absorbance at 280 nm. The concentration of dopamine in the extract was estimated using an ELISA kit from Rocky Mountain Diagnostics (Colorado Springs, Colo.) per the manufacturer's instructions and normalized to the extract protein concentration.
In general terms: An ELISA detects its analyte on a solid surface through an enzyme-linked reagent.

Experiment [3] relates to plasma insulin and glucagon. As to the kind of experiment: Plasma insulin and glucagon (ELISA) during IPGTT. It counts as in vivo, rat. Here is the method: as §1, with “30,” for “30, 45,”, “glucose administration.” for “glucose.”
Plasma was immediately separated by centrifugation at 3000×g for 15 minutes and then stored at −20° C. until analysis. Insulin and glucagon concentration measurements in rat plasma were performed by ELISA as per the manufacturer's instructions using kits from Linco Research Inc. (St. Charles, Mo.) and Alpco Diagnostics (Salem, N.H.), respectively. To validate the test, saline injections were performed by the same method. […] The area under the IPGTT glucose concentration×time curve (AUCIPGTT) was calculated by the trapezoidal rule. The area under the insulin or glucagon concentration×time curve (AUC INS or AUC GCG) was calculated in a similar manner.

The test system of experiment [4] is Lewis rats. As to the kind of experiment: IPGTT with TBZ, emetine and Compound 6 (FIG. 12). It is filed as in vivo, rat. As to conditions: single dose 2-3 mg/kg body weight. On the procedure: as §1, with “Experimental animals. All animal studies were conducted as described in Example 1. […] Rats received injections of vehicle alone (10% DMSO in saline) or reserpine (in saline). Animals recovered fully before receiving IPGTT. Blood glucose,” for “Blood glucose,”, “tests measurements. […] The fasting” for “tests measurements. Blood samples were collected from a superficial blood vessel in the tails of the rats following 6 hours of fasting between 12:00 noon and 2:00 p.m. The fasting”

The mark [5] stands for this setting: 1.6 μg/gm body weight i.v., one hour later (FIG. 3).
The mark [6] stands for this setting: one hour after injection of 10 μg/gm body weight.

On to `COc1cc2c(cc1OC)C1CC(=O)C(CC(C)C)CN1CC2` (stereo not shown) [TBZ, tetrabenazine], for which the “insulin secretion of human islets” value in the experiment on human islets is given as “not observed”. For the same compound, the “blood glucose levels during IPGTT” value in the experiment on Lewis rats [1] (around sixty minutes following glucose challenge) was “returned to control or near normal levels”. In addition, in the experiment on Lewis rats [1] (following glucose challenge), the “area under the curve in the IPGTT” value is recorded as “smaller area under the curve”. Moreover, the “blood glucose excursion during IPGTT” value in the experiment on Lewis rats [1] is “reduce the blood glucose excursion”. Also, the “blood glucose excursion during IPGTT” value in the experiment with Lewis rats [1] (listed as Tetrabenazine) is on record as “reduced the blood glucose excursion”. Besides, in experiment [2] (setting [5]), the “dopamine content of brain tissue” value was “reduces the dopamine content” and the “dopamine content of pancreas tissue” value was “reduces the dopamine content”. Moreover, in experiment [2] (setting [6]), the “dopamine content of brain” value is given as “significantly depleted” and the “dopamine content of pancreas” value was “significantly depleted”. In addition, the “plasma insulin levels during IPGTT” value in experiment [3] (TBZ 1.6 μg/gm and glucose challenge, vs vehicle treated controls) is on record as “alters; also recorded: greater”. The “AUC INS with treatment relative to AUC INS of control animals” value in experiment [3] (four out of five experiments) is on record as “greater than two fold”. In addition, in experiment [3] (i.v. TBZ 1.6 μg/gm and glucose challenge, relative to controls), the “plasma glucagon levels during IPGTT” value is “alters; also recorded: generally lower”. Moreover, in experiment [3] (prior to glucose challenge, not statistically significant), the “baseline plasma concentrations of glucagon” value is “sometimes lower than controls”. Besides, in experiment [3] (three of five experiments), the “AUC GCG, less than that of control animals” value was 75%-85%. In addition, in the experiment on Lewis rats [4], the “blood glucose excursion during IPGTT” value is on record as “consistently reduced the blood glucose excursion”. The “area under the curve from IPGTT” value with Lewis rats [4] (separate experiments) is recorded as “depress the area under the curve; also recorded: consistently suppressed the area under the curve”.
